Source: ChEMBL document CHEMBL1137884, “Synthesis of ether analogues derived from HUN-7293 and evaluation as inhibitors of VCAM-1 expression” (Bioorg Med Chem Lett, 2004)
Numbered stars: 1 amine (or outer) side, 2 acyl side, 3 side chain; on linkers, the order of the positions; unused ones are H or OH. Square brackets hold non-standard residues; d marks the D form. Peptide text beside a SMILES is read from it. NMeTrp(1-OMe) = CN[C@@H](Cc1cn(OC)c2ccccc12)C(=O)O; Butanoyl(2R-oxy,4-CN) = N#CCC[C@@H](O)C(=O)O; X1 = CCCC[C@@H](C)C[C@H](N[*:1])C(=O)[*:2]; NMeL = CN[C@@H](CC(C)C)C(=O)O; NMeA = CN[C@@H](C)C(=O)O

Columns and labels:
[1] = system: HMEC; assay: inhibition of TNF-alpha-induced ICAM-1 expression in the human microvascular endothelial cell line HMEC-1; assay type: functional, cell-based
[2] = system: HMEC; assay: inhibition of TNF-alpha-induced VCAM-1 expression in the human microvascular endothelial cell line HMEC-1; assay type: functional, cell-based

| Structure (SMILES) | IC50 [1] | IC50 [2] |
| --- | --- | --- |
| CCCC[C@@H](C)C[C@@H]1NC(=O)[C@H](Cc2cn(OC)c3ccccc23)N(C)C(=O)[C@H](CC(C)C)NC(=O)[C@H](CC(C)C)N(C)C(=O)[C@H](C[C@H](C)CCCC)NC(=O)[C@H](C)OC[C@H](C)N(C)C1=O | > 30 µM | 0.63 µM |
| CCCC[C@@H](C)C[C@@H]1NC(=O)[C@H](Cc2cn(OC)c3ccccc23)N(C)C(=O)[C@H](CC(C)C)NC(=O)[C@H](CC(C)C)N(C)C(=O)[C@H](C[C@H](C)CCCC)NC(=O)COC[C@H](C)N(C)C1=O |  | 0.2 µM |
| CCCC[C@@H](C)C[C@H]1CN(C)[C@@H](C)C(=O)O[C@H](C)C(=O)N[C@@H](C[C@H](C)CCCC)C(=O)N(C)[C@@H](CC(C)C)C(=O)N[C@@H](CC(C)C)C(=O)N(C)[C@@H](Cc2cn(OC)c3ccccc23)C(=O)N1 | > 30 µM | 0.018 µM |
| CCCC[C@@H](C)C[C@@H]1NC(=O)[C@H](Cc2cn(OC)c3ccccc23)N(C)C(=O)[C@H](CC(C)C)NC(=O)[C@H](CC(C)C)N(C)C(=O)[C@H](C[C@H](C)CCCC)NC(=O)[C@@H](C)OC[C@H](C)N(C)C1=O | 1.66 µM | 0.015 µM |
| CCCC[C@@H](C)C[C@H]1CN(C)[C@@H](C)C(=O)N[C@H](C)C(=O)N[C@@H](C[C@H](C)CCCC)C(=O)N(C)[C@@H](CC(C)C)C(=O)N[C@@H](CC(C)C)C(=O)N(C)[C@@H](Cc2cn(OC)c3ccccc23)C(=O)N1 | 6.92 µM | 0.092 µM |

The remaining molecules from weak to strong by IC50 [1], led by results:

| IC50 [1] | IC50 [2] | Structure (SMILES) |
| --- | --- | --- |
| 0.178 µM | 0.002 µM | CCCC[C@@H](C)C[C@@H]1NC(=O)[C@H](Cc2cn(OC)c3ccccc23)N(C)C(=O)[C@H](CC(C)C)NC(=O)[C@H](CC(C)C)N(C)C(=O)[C@H](C[C@H](C)CCCC)NC(=O)[C@@H](C)OC(=O)[C@H](C)N(C)C1=O |
| 0.025 µM |  | CCCC[C@@H](C)C[C@@H]1NC(=O)[C@H](Cc2cn(OC)c3ccccc23)N(C)C(=O)[C@H](CC(C)C)NC(=O)[C@H](CC(C)C)N(C)C(=O)[C@H](C[C@H](C)CCCC)NC(=O)[C@@H](CCC#N)OC(=O)[C@H](C)N(C)C1=O (cyclo(L[NMeTrp(1-OMe)][X1][NMeA][Butanoyl(2R-oxy,4-CN)][X1][NMeL])) |
